One test deals with T1, human TLR7 (Homo sapiens, UniProt Q9NYK1).
T1 construct: host or cells: HEK-Blue cells
T1 sequence (Q9NYK1 27-1049): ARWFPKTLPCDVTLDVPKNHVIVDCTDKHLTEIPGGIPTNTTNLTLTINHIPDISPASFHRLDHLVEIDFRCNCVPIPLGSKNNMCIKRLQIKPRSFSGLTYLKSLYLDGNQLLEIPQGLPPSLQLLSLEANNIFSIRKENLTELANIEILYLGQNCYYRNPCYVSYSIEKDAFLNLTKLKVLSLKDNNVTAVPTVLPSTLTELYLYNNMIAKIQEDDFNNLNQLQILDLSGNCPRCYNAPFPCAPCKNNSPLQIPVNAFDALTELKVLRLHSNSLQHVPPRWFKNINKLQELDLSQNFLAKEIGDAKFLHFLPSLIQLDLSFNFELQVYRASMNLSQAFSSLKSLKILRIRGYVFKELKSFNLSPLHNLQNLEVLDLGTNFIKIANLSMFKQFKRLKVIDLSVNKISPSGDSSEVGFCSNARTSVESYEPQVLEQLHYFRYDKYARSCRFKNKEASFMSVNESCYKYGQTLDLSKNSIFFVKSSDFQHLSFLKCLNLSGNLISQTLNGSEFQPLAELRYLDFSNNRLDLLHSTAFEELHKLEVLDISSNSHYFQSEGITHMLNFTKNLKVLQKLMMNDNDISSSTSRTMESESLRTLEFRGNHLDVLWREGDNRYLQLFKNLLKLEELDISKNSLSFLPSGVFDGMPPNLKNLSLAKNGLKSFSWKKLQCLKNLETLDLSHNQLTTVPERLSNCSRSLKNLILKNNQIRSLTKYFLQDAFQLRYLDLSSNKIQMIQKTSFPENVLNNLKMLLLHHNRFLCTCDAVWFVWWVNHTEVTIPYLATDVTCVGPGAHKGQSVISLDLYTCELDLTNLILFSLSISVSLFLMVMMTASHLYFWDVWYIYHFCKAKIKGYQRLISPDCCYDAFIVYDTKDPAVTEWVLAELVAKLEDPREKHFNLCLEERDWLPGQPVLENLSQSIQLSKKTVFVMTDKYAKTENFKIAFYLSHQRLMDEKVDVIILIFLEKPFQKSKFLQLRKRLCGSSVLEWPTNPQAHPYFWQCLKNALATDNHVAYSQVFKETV
In words: TLR7 inhibition reporter assay (HEK-Blue SEAP). The format is cell-based. The note with it: HEK-Blue cells overexpressing human TLR7, gardiquimod 7.5 μM, 22 hour incubation. The method, then: (§1) TLR7/8/9 Inhibition Reporter Assays
Briefly, cells are seeded into Greiner 384 well plates (15000 cells per well for TLR7, 20,000 for TLR8 and 25,000 for TLR9) and then treated with test compounds in DMSO to yield a final dose response concentration range of 0.05 nM-50 μM. […] After a 22 hour incubation at 37° C., 5% CO2, SEAP levels are determined with the addition of HEK-Blue™ Detection reagent (Invivogen), a cell culture medium that allows for detection of SEAP, according to manufacturer's specifications. The percent inhibition is determined as the % reduction in the HEK-Blue signal present in wells treated with agonist plus DMSO alone compared to wells treated with a known inhibitor.
On the technique in general: In a reporter assay the amount or activity of a reporter protein is the signal.

The target in a further test is T2, human TLR8 (Homo sapiens, UniProt Q9NR97).
T2 construct: host or cells: HEK-Blue cells
T2 sequence (Q9NR97 27-1041): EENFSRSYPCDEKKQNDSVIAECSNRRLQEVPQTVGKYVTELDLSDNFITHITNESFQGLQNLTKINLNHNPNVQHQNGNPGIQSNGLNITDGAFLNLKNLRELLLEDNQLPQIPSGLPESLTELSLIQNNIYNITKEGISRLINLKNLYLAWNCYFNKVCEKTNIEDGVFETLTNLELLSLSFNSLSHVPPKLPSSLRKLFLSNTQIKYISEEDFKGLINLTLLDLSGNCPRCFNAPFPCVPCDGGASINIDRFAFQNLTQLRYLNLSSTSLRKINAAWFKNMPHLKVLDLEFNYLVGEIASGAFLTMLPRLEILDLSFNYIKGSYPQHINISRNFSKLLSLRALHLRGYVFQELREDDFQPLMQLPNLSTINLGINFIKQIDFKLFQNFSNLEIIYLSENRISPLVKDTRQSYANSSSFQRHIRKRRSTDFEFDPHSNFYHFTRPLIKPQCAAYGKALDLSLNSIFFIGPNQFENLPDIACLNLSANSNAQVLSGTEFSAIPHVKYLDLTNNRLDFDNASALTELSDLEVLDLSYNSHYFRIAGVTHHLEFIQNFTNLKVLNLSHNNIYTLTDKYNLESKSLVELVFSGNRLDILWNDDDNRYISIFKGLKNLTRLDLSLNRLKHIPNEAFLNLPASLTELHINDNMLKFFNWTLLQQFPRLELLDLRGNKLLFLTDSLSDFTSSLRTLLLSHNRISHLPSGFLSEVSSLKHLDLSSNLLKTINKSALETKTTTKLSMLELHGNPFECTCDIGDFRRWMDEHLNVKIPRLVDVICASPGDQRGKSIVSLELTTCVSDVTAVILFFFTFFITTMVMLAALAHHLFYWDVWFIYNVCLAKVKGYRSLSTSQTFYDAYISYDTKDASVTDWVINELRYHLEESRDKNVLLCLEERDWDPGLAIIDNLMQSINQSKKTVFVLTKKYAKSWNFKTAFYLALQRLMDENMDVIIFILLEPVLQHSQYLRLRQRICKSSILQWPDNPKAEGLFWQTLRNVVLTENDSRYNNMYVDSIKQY
In words: TLR8 inhibition reporter assay (HEK-Blue SEAP). The class given is cell-based. The following applies: HEK-Blue cells overexpressing human TLR8, R848 15.9 μM, 22 hour incubation. The method, then:
as §1
HEK-Blue™-cells (Invivogen) overexpressing human TLR7, TLR8 or TLR9 receptors were used for screening inhibitors of these receptors using an inducible SEAP (secreted embryonic alkaline phosphatase) reporter gene under the control of the IFN-β minimal promoter fused to five NF-κB and AP-1-binding sites. Briefly, cells are seeded into Greiner 384 well plates (15000 cells per well for TLR7, 20,000 for TLR8 and 25,000 for TLR9) and then treated with test compounds in DMSO to yield a final dose response concentration range of 0.05 nM-50 μM. After a 30 minute compound pre-treatment at room temperature, the cells are then stimulated with a TLR7 ligand (gardiquimod at a final concentration of 7.5 μM), TLR8 ligand (R848 at a final concentration of 15.9 μM) or TLR9 ligand (ODN2006 at a final concentration of 5 nM) to activate NF-κB and AP-1 which induce the production of SEAP. After a 22 hour incubation at 37° C., 5% CO2, SEAP levels are determined with the addition of HEK-Blue™ Detection reagent (Invivogen), a cell culture medium that allows for detection of SEAP, according to manufacturer's specifications. The percent inhibition is determined as the % reduction in the HEK-Blue signal present in wells treated with agonist plus DMSO alone compared to wells treated with a known inhibitor.

As a reminder, the IC50 is the point on the concentration scale where inhibition reaches its midpoint. Take `COc1cc(-c2cc3[nH]c(=O)n([C@H]4CCCN(CC(C)C)C4)c3cc2C(C)C)cn2ncnc12` [Example 129, (S)-1-(1-isobutylpiperidin-3-yl)-6-isopropyl-5-(8-methoxy-[1,2,4]triazolo[1,5-a]pyridin-6-yl)-1,3-dihydro-2H-benzo[d]imidazol-2-one]: the IC50 stood at 12.8 nM at human TLR7 and 4 nM on human TLR8.
As to `COc1cc(-c2cc3[nH]c(=O)n(C4CCN(C5CCOC5)CC4)c3cc2C(C)C)cn2ncnc12` (stereo not shown) [Example 162, 6-isopropyl-5-(8-methoxy-[1,2,4]triazolo[1,5-a]pyridin-6-yl)-1-(1-(tetrahydrofuran-3-yl)piperidin-4-yl)-1,3-dihydro-2H-benzo[d]imidazol-2-one], the half-inhibitory concentration (IC50) against human TLR7 turned out to be 73 nM; against human TLR8, 6.56 nM.
With `COc1cc(-c2cc3[nH]c(=O)n([C@@H]4CCCN(C5COC5)C4)c3cc2C(F)(F)F)cn2ncnc12` [Example 113, (R)-5-(8-methoxy-[1,2,4]triazolo[1,5-a]pyridin-6-yl)-1-(1-(oxetan-3-yl)piperidin-3-yl)-6-(trifluoromethyl)-1,3-dihydro-2H-benzo[d]imidazol-2-one], the IC50 stood at 488 nM at human TLR7 and 113 nM at human TLR8.
As to `Cc1cc2c(cc1-c1cc(C)c3ncnn3c1)[nH]c(=O)n2[C@@H]1CCCN(CC#N)C1` [Example 96, (R)-2-(3-(6-methyl-5-(8-methyl-[1,2,4]triazolo[1,5-a]pyridin-6-yl)-2-oxo-2,3-dihydro-1H-benzo[d]imidazol-1-yl)piperidin-1-yl)acetonitrile], the 50% inhibitory concentration (IC50) on human TLR7 came to 66.1 nM; against human TLR8, 45.3 nM.
As for `COc1cc(-c2cc3[nH]c(=O)n([C@H]4CCCN(CC5CCOC5)C4)c3cc2C(C)C)cn2ncnc12` (stereo partly drawn) [Example 126, 6-isopropyl-5-(8-methoxy-[1,2,4]triazolo[1,5-a]pyridin-6-yl)-1-((3S)-1-((tetrahydrofuran-3-yl)methyl)piperidin-3-yl)-1,3-dihydro-2H-benzo[d]imidazol-2-one], the IC50 was 81.8 nM against human TLR7 and 3.64 nM at human TLR8.
Taken in the same sequence, the figures for `CCN1CCC[C@@H](n2c(=O)[nH]c3cc(-c4cc(OC)c5ncnn5c4)c(C(C)C)cc32)C1` [Example 138, (R)-1-(1-ethylpiperidin-3-yl)-6-isopropyl-5-(8-methoxy-[1,2,4]triazolo[1,5-a]pyridin-6-yl)-1,3-dihydro-2H-benzo[d]imidazol-2-one] were 2.73 nM and 2.64 nM.
Taken in the same sequence, the figures for `COc1cc(-c2cc3[nH]c(=O)n([C@H]4CCCN(C5CCOCC5)C4)c3cc2C(C)C)cn2ncnc12` [Example 124, (S)-6-isopropyl-5-(8-methoxy-[1,2,4]triazolo[1,5-a]pyridin-6-yl)-1-(1-(tetrahydro-2H-pyran-4-yl)piperidin-3-yl)-1,3-dihydro-2H-benzo[d]imidazol-2-one] were 63.8 nM and 4.33 nM.
For `COc1cc(-c2cc3[nH]c(=O)n([C@@H]4CCCN(C(C)C)C4)c3cc2C(F)(F)F)cn2ncnc12` [Example 111, (R)-1-(1-isopropylpiperidin-3-yl)-5-(8-methoxy-[1,2,4]triazolo[1,5-a]pyridin-6-yl)-6-(trifluoromethyl)-1,3-dihydro-2H-benzo[d]imidazol-2-one], the half-inhibitory concentration (IC50) on human TLR7 worked out at 23.6 nM; against human TLR8 it was 12.6 nM.
On to `COc1cc(-c2cc3[nH]c(=O)n([C@@H]4CCCN(C)C4)c3cc2C(F)(F)F)cn2ncnc12` [Example 114, (R)-5-(8-methoxy-[1,2,4]triazolo[1,5-a]pyridin-6-yl)-1-(1-methylpiperidin-3-yl)-6-(trifluoromethyl)-1,3-dihydro-2H-benzo[d]imidazol-2-one], for which the IC50 against human TLR7 was 2.87 nM; against human TLR8 it was 0.29 nM.
On to `CCCN1CCC[C@@H](n2c(=O)[nH]c3cc(-c4cn5ncnc5c(C)c4C)c(C(C)C)cc32)C1` [Example 150, (R)-5-(7,8-dimethyl-[1,2,4]triazolo[1,5-a]pyridin-6-yl)-6-isopropyl-1-(1-propylpiperidin-3-yl)-1,3-dihydro-2H-benzo[d]imidazol-2-one], for which the results for the IC50 on human TLR7 and at human TLR8 were 5.52 nM and 4.25 nM, respectively.
Taken in the same sequence, the figures for `CCCN1CCC[C@@H](n2c(=O)[nH]c3cc(-c4cc(OC)c5ncnn5c4)c(C(C)C)cc32)C1` [Example 134, (R)-6-isopropyl-5-(8-methoxy-[1,2,4]triazolo[1,5-a]pyridin-6-yl)-1-(1-propylpiperidin-3-yl)-1,3-dihydro-2H-benzo[d]imidazol-2-one] were 1.98 nM and 5.93 nM.
Taken in the same sequence, the figures for `COc1cc(-c2cc3[nH]c(=O)n(C4CCN(C(C)C)CC4)c3cc2C(C)C)cn2ncnc12` [Example 163, 6-isopropyl-1-(1-isopropylpiperidin-4-yl)-5-(8-methoxy-[1,2,4]triazolo[1,5-a]pyridin-6-yl)-1,3-dihydro-2H-benzo[d]imidazol-2-one] were 7.49 nM and 7.58 nM.
On to `COc1cc(-c2cc3[nH]c(=O)n([C@@H]4CCCN(C)C4)c3cc2C(C)C)cn2ncnc12` [Example 136, (R)-6-isopropyl-5-(8-methoxy-[1,2,4]triazolo[1,5-a]pyridin-6-yl)-1-(1-methylpiperidin-3-yl)-1,3-dihydro-2H-benzo[d]imidazol-2-one], for which the figures for the concentration for half-maximal inhibition (IC50) against human TLR7 and against human TLR8 were 2.18 nM and 2.01 nM, respectively.
For `COc1cc(-c2cc3[nH]c(=O)n([C@H]4CCCN(CC5CC5)C4)c3cc2C(C)C)cn2ncnc12` (single isomer, unassigned) [Example 128], the IC50 at human TLR7 stood at 44 nM; on human TLR8, 2.63 nM.

The record behind these values is US12187723B2 (BRISTOL-MYERS SQUIBB COMPANY, priority 2019, dated 2025).
